Columns and labels:
[1] = tested on: MCF-7 (breast) cancer cells; experiment: SRB cytotoxicity assay against MCF7; type: cell-based, human; settings: 72 h treatment
Method: (§1) MCF-7 (breast) and PC3 (prostate) cancer cells were each grown in RPMI-1640 medium supplemented with 10% heat inactivated FBS, 50 units/mL of penicillin, and […] of streptomycin. The cultures were maintained at 37° C. in a humidified atmosphere containing 5% CO2. The cells were maintained as “monolayer culture” by serial sub-culturing.
(§2) Cytotoxicity was determined using SRB method as previously described by Skehan et al. [Skehan P.; Storeng R.; Scudiero D.; Monks A.; McMahon J.; al., V. D. e., New colorimetric cytotoxicity assay for anticancer drug screening. […] Exponentially growing cells were collected using 0.25% Trypsin-EDTA and seeded in 96-well plates at 1000-2000 cells/well in RPMI-1640 supplemented medium. After 24 h, cells were incubated for 72 h with various concentrations of the tested compounds. Following 72 h treatment, the cells would be fixed with 10% trichloroacetic acid for 1 h at 4° C. Wells were stained for 10 min at room temperature with 0.4% SRB dissolved in 1% acetic acid. The plates were air dried for 24 h and the dye was solubilized with Tris-HCl for 5 min on a shaker at 1600 rpm. The optical density (OD) of each well was measured spectrophotometrically at 564 nm with an ELISA microplate reader (ChroMate-4300, FL, USA). The IC50 values were calculated according to the equation for Boltzman sigmoidal concentration—response curve using the nonlinear regression fitting models (Graph Pad, Prism Version 5).

[2] = tested on: PC3 (prostate) cancer cells; experiment: SRB cytotoxicity assay against PC3; type: cell-based, human; settings: 72 h treatment
Method: as §1, §2

Row | SMILES | IC50 ([1]; Homo sapiens) [µM] | IC50 ([2]; Homo sapiens) [µM] | melting point [°C] | IC50 [1] [µM] | IC50 [2] [µM]
1 | O=C(Cc1ccc(NC(=O)C(=Cc2ccc(Cl)cc2)NC(=O)c2ccccc2)cc1)NCc1ccccc1 (stereo in doubt) [KIM-221V, (E)-N-(3-((4-(2-(benzylamino)-2-oxoethyl)phenyl)amino)-1-(4-chlorophenyl)-3-oxoprop-1-en-2-yl)benzamide] | 3.12 | 4.08 |  |  | 
2 | CC1=N/C(=C\c2ccccc2)C(=O)N1c1ccc(CC(=O)NCc2ccccc2)cc1 [KIM-111C, (Z)—N-benzyl-2-(4-(4-benzylidene-2-methyl-5-oxo-4,5-dihydro-1H-imidazol-1-yl)phenyl)acetamide] |  |  | 164 to 165 |  | 
3 | CC(=O)N/C(=C/c1ccccc1)C(=O)Nc1ccc(CC(=O)NCc2ccccc2)cc1 [KIM-111V, (E)-2-acetamido-N-(4-(2-(benzylamino)-2-oxoethyl)phenyl)-3-phenylacrylamide] | > 100 | > 100 | 197 |  | 
4 | CC1=N/C(=C\c2ccc(Cl)cc2)C(=O)N1c1ccc(CC(=O)NCc2ccccc2)cc1 [KIM-121C, (Z)—N-benzyl-2-(4-(4-(4-chlorobenzylidene)-2-methyl-5-oxo-4,5-dihydro-1H-imidazol-1-yl)phenyl)acetamide] |  | 6.86 | 209 to 211 |  | 
5 | CC(=O)N/C(=C/c1ccc(Cl)cc1)C(=O)Nc1ccc(CC(=O)NCc2ccccc2)cc1 [KIM-121V, (E)-2-acetamido-N-(4-(2-(benzylamino)-2-oxoethyl)phenyl)-3-(4-chlorophenyl)acrylamide] | > 100 | 57.3 |  |  | 
6 | COc1cc(/C=C2\N=C(C)N(c3ccc(CC(=O)NCc4ccccc4)cc3)C2=O)ccc1O [KIM-131C, (Z)—N-benzyl-2-(4-(4-(4-hydroxy-3-methoxybenzylidene)-2-methyl-5-oxo-4,5-dihydro-1H-imidazol-1-yl)phenyl)acetamide] | 9.48 | 5.83 |  |  | 
7 | COc1cc(/C=C(/NC(C)=O)C(=O)Nc2ccc(CC(=O)NCc3ccccc3)cc2)ccc1O [KIM-131V, (E)-2-acetamido-N-(4-(2-(benzylamino)-2-oxoethyl)phenyl)-3-(4-hydroxy-3-methoxyphenyl) acrylamide] |  |  |  | 53.5 | 61.3
8 | COc1ccc(/C=C(/NC(C)=O)C(=O)Nc2ccc(CC(=O)NCc3ccccc3)cc2)cc1 [KIM-161V, (E)-2-acetamido-N-(4-(2-(benzylamino)-2-oxoethyl)phenyl)-3-(4-methoxyphenyl) acrylamide] |  |  |  | 44.3 | 41.1
9 | O=C(Cc1ccc(N2C(=O)/C(=C/c3ccccc3)N=C2c2ccccc2)cc1)NCc1ccccc1 [KIM-211C, (Z)—N-benzyl-2-(4-(4-benzylidene-5-oxo-2-phenyl-4,5-dihydro-1H-imidazol-1-yl)phenyl)acetamide] |  |  | 218 to 219 |  | 
10 | O=C(Cc1ccc(NC(=O)/C(=C\c2ccccc2)NC(=O)c2ccccc2)cc1)NCc1ccccc1 [KIM-211V, (E)-N-(3-((4-(2-(benzylamino)-2-oxoethyl)phenyl)amino)-3-oxo-1-phenylprop-1-en-2-yl) benzamide] | > 100 | > 100 |  |  | 
11 | O=C(Cc1ccc(N2C(=O)/C(=C/c3ccc(Cl)cc3)N=C2c2ccccc2)cc1)NCc1ccccc1 [KIM-221C, (Z)—N-benzyl-2-(4-(4-(4-chlorobenzylidene)-5-oxo-2-phenyl-4,5-dihydro-1H-imidazol-1-yl)phenyl)acetamide] |  |  | 218 to 220 |  | 
12 | COc1cc(/C=C2\N=C(c3ccccc3)N(c3ccc(CC(=O)NCc4ccccc4)cc3)C2=O)ccc1O [KIM-231C, (Z)—N-benzyl-2-(4-(4-(4-hydroxy-3-methoxybenzylidene)-5-oxo-2-phenyl-4,5-dihydro-1H-imidazol-1-yl)phenyl)acetamide] |  |  | 109 to 112 |  | 
13 | COc1cc(/C=C(/NC(=O)c2ccccc2)C(=O)Nc2ccc(CC(=O)NCc3ccccc3)cc2)ccc1O [KIM-231V, (E)-N-(3-((4-(2-(benzylamino)-2-oxoethyl)phenyl)amino)-1-(4-hydroxy-3-methoxyphenyl)-3-oxoprop-1-en-2-yl)benzamide] | > 100 | > 100 |  |  | 
14 | COc1ccc(/C=C2\N=C(c3ccccc3)N(c3ccc(CC(=O)NCc4ccccc4)cc3)C2=O)cc1 [KIM-261C, (Z)—N-benzyl-2-(4-(4-(4-methoxybenzylidene)-5-oxo-2-phenyl-4,5-dihydro-1H-imidazol-1-yl)phenyl)acetamide] |  |  | 193 |  | 
15 | COc1ccc(/C=C(/NC(=O)c2ccccc2)C(=O)Nc2ccc(CC(=O)NCc3ccccc3)cc2)cc1 [KIM-261V, (E)-N-(3-((4-(2-(benzylamino)-2-oxoethyl)phenyl)amino)-1-(4-methoxyphenyl)-3-oxoprop-1-en-2-yl)benzamide] | > 100 | > 100 |  |  | 
16 | Cc1cc(F)ccc1/C=C(/NC(=O)c1ccccc1)C(=O)Nc1ccc(CC(=O)NCc2ccccc2)cc1 [KIM-2101V, (E)-N-(3-((4-(2-(benzylamino)-2-oxoethyl)phenyl)amino)-1-(4-fluoro-2-methylphenyl)-3-oxoprop-1-en-2-yl)benzamide] | > 100 | > 100 |  |  | 
17 | COc1ccc(CNC(=O)Cc2ccc(NC(=O)/C(=C\c3ccc(Cl)cc3)NC(=O)c3ccccc3)cc2)cc1 [KIM-2216V, (E)-N-(1-(4-chlorophenyl)-3-((4-(2-((4-methoxybenzyl)amino)-2-oxoethyl)phenyl)amino)-3-oxoprop-1-en-2-yl)benzamide] | > 100 | > 100 |  |  | 
18 | O=C(Cc1ccc(NC(=O)/C(=C\c2ccc(Cl)cc2)NC(=O)c2ccccc2)cc1)NCc1ccco1 [KIM-2230V, (E)-N-(1-(4-chlorophenyl)-3-((4-(2-((furan-2-ylmethyl)amino)-2-oxoethyl)phenyl)amino)-3-oxoprop-1-en-2-yl)benzamide] | > 100 | 97.8 |  |  | 
19 | CN(Cc1ccccc1)C(=O)Cc1ccc(NC(=O)/C(=C\c2ccc(Cl)cc2)NC(=O)c2ccccc2)cc1 [KIM-2245V, (E)-N-(3-((4-(2-(benzyl(methyl)amino)-2-oxoethyl)phenyl)amino)-1-(4-chlorophenyl)-3-oxoprop-1-en-2-yl)benzamide] | > 100 | > 100 |  |  | 
20 | O=C(Cc1ccc(NC(=O)/C(=C\c2ccc(Cl)cc2)NC(=O)c2ccccc2)cc1)NCCc1ccccc1 [KIM-2246V, (E)-N-(1-(4-chlorophenyl)-3-oxo-3-((4-(2-oxo-2-(phenethylamino)ethyl)phenyl)amino)prop-1-en-2-yl)benzamide] | > 100 | > 100 |  |  | 
21 | CC(NC(=O)Cc1ccc(NC(=O)/C(=C\c2ccc(Cl)cc2)NC(=O)c2ccccc2)cc1)c1ccccc1 (stereo not shown) [KIM-2247V, (E)-N-(1-(4-chlorophenyl)-3-oxo-3-((4-(2-oxo-2-((1-phenylethyl)amino)ethyl)phenyl)amino)prop-1-en-2-yl)benzamide] | > 100 | > 100 |  |  | 
22 | O=C(Cc1ccc(NC(=O)/C(=C\c2ccc(Cl)cc2)NC(=O)c2ccccc2)cc1)NCc1ccc(F)cc1 [KIM-2248V, (E)-N-(1-(4-chlorophenyl)-3-((4-(2-((4-fluorobenzyl)amino)-2-oxoethyl)phenyl)amino)-3-oxoprop-1-en-2-yl)benzamide] | 89.6 | 85.1 |  |  | 
23 | O=C(Cc1ccc(NC(=O)/C(=C\c2ccc(Cl)cc2)NC(=O)c2ccccc2)cc1)NCc1ccc(-c2ccccc2)cc1 [KIM-2249V, (E)-N-(3-((4-(2-(([1,1′-biphenyl]-4-ylmethyl)amino)-2-oxoethyl)phenyl)amino)-1-(4-chlorophenyl)-3-oxoprop-1-en-2-yl)benzamide] | 87.5 | 92.2 |  |  | 
24 | O=C(Cc1ccc(NC(=O)/C(=C\c2ccc(Cl)cc2)NC(=O)c2ccccc2)cc1)NCc1cccc(F)c1 [KIM-2250V, (E)-N-(1-(4-chlorophenyl)-3-((4-(2-((3-fluorobenzyl)amino)-2-oxoethyl)phenyl)amino)-3-oxoprop-1-en-2-yl)benzamide] | > 100 | > 100 |  |  | 
25 | O=C(Cc1ccc(NC(=O)/C(=C\c2ccc(Cl)cc2)NC(=O)c2ccccc2)cc1)Nc1ccccc1 [KIM-22101V, (E)-N-(1-(4-chlorophenyl)-3-oxo-3-((4-(2-oxo-2-(phenylamino)ethyl)phenyl)amino)prop-1-en-2-yl)benzamide] | > 100 | > 100 |  |  | 

Source: patent US11174233B1, “Anti-cancer compounds having oxazolone derivation” (King Abdulaziz University, priority 2019, dated 2021)
